Reference: patent US7547759B2, “Induction of tumor immunity by variants of folate binding protein” (Board of Regents, The University of Texas System, priority 2001, dated 2009)
Entries after “also recorded” stand apart in the source; their conditions may differ.

Experiments:
[1] = system: peripheral blood mononuclear cells (PBMC); test: Expansion of PBMC stimulated with FBP peptide E39 and its variants (live cell counts); format: cell-based, human
Text: FIG. 4 illustrates expansion of PBMCs stimulated with FBP peptide E39 and its variants.
(§1) To identify which of E39 variants induced higher cell expansion, PBMC from the same donor were stimulated three times with the corresponding peptide, and the resulting live cells were counted a week after each stimulation. […] Similar results were obtained with J65 in another donor (FIG. 5).

HLA-A2 = HLA-A2 stabilization by FBP epitope E39 variants; format: binding, human; settings: FIG. 1; compared with wild-type E39
Text: (§2) The HLA-A2 stabilizing ability of the variant peptides has also been determined (FIG. 1). […] In contrast, substitutions at position 1 increase the binding affinity of the peptide. The results in FIG. 2 show the cytolytic activity of J65-induced CTL compared with E39-induced CTL.

[2] = system: peripheral blood mononuclear cells (PBMC); test: IFN-γ induction in PBMC with multiple peptide stimulations; format: cell-based, human
Text: FIG. 2A illustrates IFN-γ induction in peripheral blood mononuclear cells (PBMC) with multiple stimulations with J65 or E39.
as §2
(§3) To address the effects of FBP variants on induction of CTL activity, PBMC cultures from the healthy donor stimulated three times with J65 were split in three and restimulated with either E39 or J65 or J77. A control culture was made of the same PBMC stimulated three times with E39 and restimulated with E39 for the fourth time. […] It was recently reported that memory CTL reacting with the tumor Ag such as FBP are present in the blood of healthy individuals (Lee et al., 2000). These cells can be easily activated by stimulation with the corresponding peptide presented on dendritic cells (Kim et al., 1999). To evaluate the stimulating ability of the analogs J65 and J77, PBMC from a responding donor were stimulated with E39, J65 and J77.

[3] = system: peripheral blood mononuclear cells (PBMC); test: Specific IL-2 induction in PBMC by priming with E39 variants; format: cell-based, human; settings: PBMC of responding donor; compared with wild-type peptide E39; FIG. 3
Text: FIG. 3 illustrates specific interleukin 2 (IL-2) induction in PBMCs by priming with E39 variants.
as §1

[4] = system: peripheral blood mononuclear cells (PBMC); test: CTL activity in PBMC with multiple peptide stimulations; format: cell-based, human; settings: for CTL activity: recognition of E39: healthy donor PBMC stimulated three times with the peptide, then restimulated with E39
Text: FIG. 2B illustrates CTL activity in PBMC with multiple stimulations with J65 or E39.
CTL activity can be assessed by methods described herein or as would be known to one of skill in the art. For example, CTLs may be assessed in freshly isolated peripheral blood mononuclear cells (PBMC), in a phytohaemaglutinin-stimulated IL-2 expanded cell line established from PBMC (Bernard et at., 1998) or by T cells isolated from a previously immunized subject and restimulated for 6 days with DC infected with an adenovirus vector containing antigen using standard 4 h 51^Cr release microtoxicity assays. In another fluorometric assay developed for detecting cell-mediated cytotoxicity, the fluorophore used is the non-toxic molecule ALAMARBLUE (dye) (Nociari et at., 1998). The ALAMARBLUE (dye) is fluorescently quenched (i.e., low quantum yield) until mitochondrial reduction occurs, which then results in a dramatic increase in the alamarBlue fluorescence intensity (i.e., increase in the quantum yield).
as §3

HLA-A2 (human) = test: HLA-A2 stabilization assay (FIG. 1)
[5] = same donor, stimulated three times with peptide, live cells counted a week after each stimulation, FIG. 4

HLA-A2 stabilizing ability relative to E39 (HLA-A2 (human))	Molecule	cell expansion of PBMC cultures ([1]; another donor, FIG. 5)	cell expansion of PBMC cultures [1, 5]	HLA-A2 stabilizing ability (HLA-A2)	IFN-γ induction ([2]; 3×J65 stimulated PBMC cultures restimulated with the peptide, FIG. 2)	IFN-γ secretion elicited by wild-type epitope E39 in peptide-primed CTL ([2]; CTL primed with the peptide, then stimulated with E39)	IL-2 induction [3]	CTL activity: recognition of E39 [4]	CTL activity ([4]; healthy donor PBMC stimulated three times with J65 (3×J65), restimulated with the peptide)
	EIWTFSTKV [J65, E39 variant H5→F, Y7→T]	expanded faster	increased faster in numbers	almost half of the stabilizing ability of E39	weaker inducer of IFN-γ	higher	lower levels of IL-2	significantly higher recognition of E39; also recorded: higher CTL activity	
	EIWTFSYKV [J78, E39 variant H5→F]	expanded, but at a slower rate	proliferated slower than control cultures						
	EIWTHSTKV [J77, E39 variant Y7→T]	expanded, but at a slower rate	proliferated slower than control cultures				lower levels of IL-2		significantly lower CTL activity
	EIWTHSYKV [E39, reference compound]	died after the third stimulation	initially expanded faster than other cultures					moderate weak recognition of E39	
0.5 fold of E39	EIWTFSTKV [J65 (variant of FBP epitope E39, H5→F, Y7→T)]								
